The values that follow come from patent US5428031A, “Methods of treating cardiac arrhythmia” (priority 1993, dated 1995).

pIC50: −log10 of the molar value.

The target of the assay is T1, IKr (rapidly activating delayed rectifier K+ current) (Cavia porcellus, UniProt O08703).
T1 construct: Guinea pig ventricular myocytes were isolated; endogenous in cells; host or cells: isolated guinea pig ventricular myocytes
T1 sequence (O08703 1-1294): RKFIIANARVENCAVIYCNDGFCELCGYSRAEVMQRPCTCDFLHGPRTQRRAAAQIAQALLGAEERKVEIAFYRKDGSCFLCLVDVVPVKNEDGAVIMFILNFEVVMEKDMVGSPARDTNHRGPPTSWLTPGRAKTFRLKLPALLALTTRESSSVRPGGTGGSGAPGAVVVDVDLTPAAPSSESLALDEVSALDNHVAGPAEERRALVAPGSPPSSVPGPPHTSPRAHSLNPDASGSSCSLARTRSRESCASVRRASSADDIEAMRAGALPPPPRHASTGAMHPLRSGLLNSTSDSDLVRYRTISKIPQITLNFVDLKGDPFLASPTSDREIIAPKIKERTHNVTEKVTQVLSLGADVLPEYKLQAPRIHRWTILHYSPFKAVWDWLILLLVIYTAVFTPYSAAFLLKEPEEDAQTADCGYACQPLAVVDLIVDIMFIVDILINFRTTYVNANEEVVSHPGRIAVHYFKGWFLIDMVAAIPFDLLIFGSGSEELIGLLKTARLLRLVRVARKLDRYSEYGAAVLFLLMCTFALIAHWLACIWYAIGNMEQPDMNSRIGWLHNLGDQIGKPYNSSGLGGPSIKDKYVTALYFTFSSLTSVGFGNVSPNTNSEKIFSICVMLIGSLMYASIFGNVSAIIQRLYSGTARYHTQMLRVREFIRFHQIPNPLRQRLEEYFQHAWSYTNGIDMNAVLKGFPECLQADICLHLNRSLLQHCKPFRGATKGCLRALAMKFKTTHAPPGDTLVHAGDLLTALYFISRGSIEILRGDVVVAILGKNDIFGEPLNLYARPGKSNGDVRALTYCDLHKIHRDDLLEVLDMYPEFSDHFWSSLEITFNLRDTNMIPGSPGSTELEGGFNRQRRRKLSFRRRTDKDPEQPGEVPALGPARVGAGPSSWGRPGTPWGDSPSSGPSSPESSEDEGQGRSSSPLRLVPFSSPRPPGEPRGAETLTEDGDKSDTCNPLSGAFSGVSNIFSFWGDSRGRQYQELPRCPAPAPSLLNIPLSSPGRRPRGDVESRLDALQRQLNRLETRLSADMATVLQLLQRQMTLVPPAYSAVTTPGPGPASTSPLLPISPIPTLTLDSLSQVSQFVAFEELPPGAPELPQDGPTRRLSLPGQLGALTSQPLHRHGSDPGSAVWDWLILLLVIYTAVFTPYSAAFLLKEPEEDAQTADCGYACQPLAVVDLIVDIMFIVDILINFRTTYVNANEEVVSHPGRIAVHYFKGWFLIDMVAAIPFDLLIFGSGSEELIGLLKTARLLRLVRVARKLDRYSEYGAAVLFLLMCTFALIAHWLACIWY
The assay can be described thus: voltage clamp measurement of IKr block in isolated guinea pig ventricular myocytes. The assay is classed as cell-based. The method, then: Guinea pig ventricular myocytes were isolated using a modification of the procedure described by Mitra R and Morad M., "A Uniform Enzymatic Method for Dissociation of Myocytes from Hearts and Stomachs of Nertilorates", Am. J. Physiol. […] Excised hearts were perfused through the aorta (retrograde fashion) at a rate of 10 ml/min with oxygenated, warmed (37° C.) solutions described below. […] The head was then perfused with the same nominally Ca^2+ -free solution containing 150 units/ml Type II collagenase (Worthington) and 0.5 units/ml Type XIV protease (Sigma) for 8 minutes. This perfusate was followed by a Tyrode's solution containing 0.2 mM CaCl2 (without enzymes) for 5 minutes. The digested ventricles were cut into small pieces and gently shaken until cells were visibly dispersed. The cells were stored at room temperature until use, within 8 hours after isolation.
The suction microelectrode technique described by Giles, W. R. and Shibata, E. F., "Voltage clamp of bull-frog cardiac pacemaker cells: a quantitative, analysis of potassium currents". J. Physiol. […] Microelectrodes were made by using a two stage puller from square bore (1.0 mm o.d.) borosilicate capillary tubing. […] After establishing whole-cell recording mode, negative pressure was maintained on the pipette using a 1 ml gas-tight syringe attached via air tight tubing to the suction port of the microelectrode holder. This minimized dialysis of the cell with the pipette solution.
To record K^+ currents, the cells were bathed in a Ca^2+ -free Tyrode's :solution containing […] nisoldipine. […] A List EPC-7 clamp amplifier was used to voltage clamp the isolated cells. […] A variety of voltage pulse protocols were used to measure Ca^2+ current and three types of K^+ currents: inward rectifier (IK1), rapidly activating delayed rectifier (IKr) and the slowly activating delayed rectifier (IKs). Sanguinetti M. C. and Jurkiewicz, N. K., "Two components of cardiac delayed rectifier K^+ current: Differential sensitivity to block by Class III antiarrhythmic agents". […] Data was analyzed as % block from control membrane currents.
Nisoldipins was prepared as a 4 mM stock solution in polyethylne glycol 200. Compounds tested in this series were prepared as 10 mM stock solutions in polyethylene glycol 400 or dimethyl sulfoxide.

Regarding `Cc1cccc(NC(=O)N[C@@H]2N=C(c3ccccc3)c3ccccc3N(C)C2=O)c1` [Compound 4, (R)-N-(2,3-dihydro-1-methyl-2-oxo-5-phenyl-1H-1,4-benzodiazepin-3-yl)-N'-(3-methylphenyl)urea], the pIC50 was approximately 5.30. Also, the “effect on IKr” value (1 μM) is listed as “Little or no effect”.

One may read the pIC50 as the negative decadic logarithm of the IC50, by convention in mol/L. A lower pIC50 goes with a large IC50.
